Measurements from publication PMC9403976, “Elucidating the path to Plasmodium prolyl-tRNA synthetase inhibitors that overcome halofuginone resistance” (Nature Communications, 2022).
Values joined by “and” are separate entries in the source; they are usually repeats but may differ in a detail not shown here. Equal values may be shown once. Read-outs that look alike come from different tables or passages of the source.

Tests used:
HsProRS = HsProRS (Homo sapiens, UniProt P07814); assay: TR-FRET ligand displacement assay with tracer MAT379 (CoraFluor-1-Halo and anti-His6 antibody formats); type: binding; parameters: made in house; host or cells: E. coli SoluBL-21; details: for TR-FRET dose-response, normalized signal (SI Fig 11): individual replicates
Chain of HsProRS (P07814 996-1512): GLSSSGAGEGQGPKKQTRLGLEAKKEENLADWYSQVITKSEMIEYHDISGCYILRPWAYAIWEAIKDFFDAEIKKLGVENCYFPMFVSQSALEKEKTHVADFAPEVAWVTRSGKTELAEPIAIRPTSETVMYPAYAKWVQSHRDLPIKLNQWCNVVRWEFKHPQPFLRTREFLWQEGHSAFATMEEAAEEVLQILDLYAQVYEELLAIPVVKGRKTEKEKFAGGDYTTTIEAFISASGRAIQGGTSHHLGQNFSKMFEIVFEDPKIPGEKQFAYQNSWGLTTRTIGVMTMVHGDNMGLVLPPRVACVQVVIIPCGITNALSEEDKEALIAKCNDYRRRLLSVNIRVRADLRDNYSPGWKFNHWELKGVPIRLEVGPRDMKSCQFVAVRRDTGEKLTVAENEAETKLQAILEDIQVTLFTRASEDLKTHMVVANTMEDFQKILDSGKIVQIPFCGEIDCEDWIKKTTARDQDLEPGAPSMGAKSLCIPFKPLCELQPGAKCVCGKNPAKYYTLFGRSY

P. falciparum Dd2-2D4 = assay: P. falciparum asexual blood stage (ABS) growth assay, SYBR Green, 72 h, wild-type parasites; type: cell-based, Plasmodium falciparum; details: Plasmodium falciparum, DD2; SI Fig 16b; values on -log scale; read-out: ABS - Dd2-2D4 (converted)
PfcProRS = target: T1, PfcProRS (Plasmodium falciparum, UniProt Q8I5R7); type: binding; details: for dose-response signal (normalized), SI Fig 8: single replicates
T1 construct: made in house; host or cells: E. coli SoluBL-21
T1 sequence (Q8I5R7 249-746): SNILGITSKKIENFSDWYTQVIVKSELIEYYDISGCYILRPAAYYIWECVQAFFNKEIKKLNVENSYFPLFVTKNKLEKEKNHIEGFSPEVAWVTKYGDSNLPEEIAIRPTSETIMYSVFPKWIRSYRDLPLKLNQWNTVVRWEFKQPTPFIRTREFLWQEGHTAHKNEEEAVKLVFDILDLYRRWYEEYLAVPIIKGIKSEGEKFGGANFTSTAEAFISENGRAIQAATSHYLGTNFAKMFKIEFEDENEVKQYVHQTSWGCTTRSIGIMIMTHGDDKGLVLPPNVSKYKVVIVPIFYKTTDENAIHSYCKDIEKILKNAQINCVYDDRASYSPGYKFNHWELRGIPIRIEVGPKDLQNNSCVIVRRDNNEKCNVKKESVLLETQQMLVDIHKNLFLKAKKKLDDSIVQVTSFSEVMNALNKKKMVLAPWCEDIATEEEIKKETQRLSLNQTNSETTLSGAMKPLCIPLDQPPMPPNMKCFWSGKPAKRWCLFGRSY

O=C(Nc1nccnc1C(=O)NC1Cc2ccccc2C1)c1ccccc1 [compound 21]
Kd (HsProRS; HsProRS (KD [nM]) mean, no added proline/ATP (-)): 7830 nM
Kd (HsProRS; HsProRS - best Kd, SI Fig 16a, values on -log scale): 140 nM
normalized TR-FRET ligand displacement signal, dose-response replicates (SI Fig 6) (HsProRS; Log[inhibitor] (M) -5.000): 5.46E-01 and 5.55E-01 and 4.94E-01
TR-FRET dose-response, normalized signal (SI Fig 11) (HsProRS; Log[inhibitor] (M) -5.000): 4.76E-01 and 4.38E-01 and 4.70E-01
normalized TR-FRET ligand displacement signal, dose-response replicates (SI Fig 6) (HsProRS; Log[inhibitor] (M) -5.301): 7.40E-01 and 7.43E-01 and 7.80E-01
TR-FRET dose-response, normalized signal (SI Fig 11) (HsProRS; Log[inhibitor] (M) -5.301): 6.10E-01 and 6.26E-01 and 6.30E-01
normalized TR-FRET ligand displacement signal, dose-response replicates (SI Fig 6) (HsProRS; Log[inhibitor] (M) -5.601): 9.19E-01 and 8.75E-01 and 9.42E-01
TR-FRET dose-response, normalized signal (SI Fig 11) (HsProRS; Log[inhibitor] (M) -5.601): 7.50E-01 and 7.65E-01 and 7.70E-01
normalized TR-FRET ligand displacement signal, dose-response replicates (SI Fig 6) (HsProRS; Log[inhibitor] (M) -5.904): 9.17E-01 and 1.01E+00 and 8.04E-01
TR-FRET dose-response, normalized signal (SI Fig 11) (HsProRS; Log[inhibitor] (M) -5.904): 8.93E-01 and 9.01E-01 and 8.63E-01
normalized TR-FRET ligand displacement signal, dose-response replicates (SI Fig 6) (HsProRS; Log[inhibitor] (M) -6.208): 9.67E-01 and 9.54E-01 and 1.10E+00
TR-FRET dose-response, normalized signal (SI Fig 11) (HsProRS; Log[inhibitor] (M) -6.208): 8.73E-01 and 9.00E-01 and 9.32E-01
normalized TR-FRET ligand displacement signal, dose-response replicates (SI Fig 6) (HsProRS; Log[inhibitor] (M) -6.509): 9.94E-01 and 9.87E-01 and 9.37E-01
TR-FRET dose-response, normalized signal (SI Fig 11) (HsProRS; Log[inhibitor] (M) -6.509): 9.94E-01 and 8.74E-01 and 9.48E-01
normalized TR-FRET ligand displacement signal, dose-response replicates (SI Fig 6) (HsProRS; Log[inhibitor] (M) -6.796): 1.04E+00 (2×) and 9.65E-01
TR-FRET dose-response, normalized signal (SI Fig 11) (HsProRS; Log[inhibitor] (M) -6.796): 9.17E-01 and 9.74E-01 and 9.27E-01
normalized TR-FRET ligand displacement signal, dose-response replicates (SI Fig 6) (HsProRS; Log[inhibitor] (M) -7.108): 1.01E+00 and 1.08E+00 and 1.09E+00
TR-FRET dose-response, normalized signal (SI Fig 11) (HsProRS; Log[inhibitor] (M) -7.108): 9.75E-01 and 8.96E-01 and 1.01E+00
normalized TR-FRET ligand displacement signal, dose-response replicates (SI Fig 6) (HsProRS; Log[inhibitor] (M) -7.409): 1.16E+00 and 9.90E-01 and 9.46E-01
TR-FRET dose-response, normalized signal (SI Fig 11) (HsProRS; Log[inhibitor] (M) -7.409): 9.43E-01 and 9.53E-01 and 9.38E-01
normalized TR-FRET ligand displacement signal, dose-response replicates (SI Fig 6) (HsProRS; Log[inhibitor] (M) -7.710): 1.13E+00 and 9.28E-01 and 1.00E+00
TR-FRET dose-response, normalized signal (SI Fig 11) (HsProRS; Log[inhibitor] (M) -7.710): 1.01E+00 and 9.57E-01 and 9.99E-01
normalized TR-FRET ligand displacement signal, dose-response replicates (SI Fig 6) (HsProRS; Log[inhibitor] (M) -8.000): 1.06E+00 and 9.95E-01 and 9.77E-01
TR-FRET dose-response, normalized signal (SI Fig 11) (HsProRS; Log[inhibitor] (M) -8.000): 9.75E-01 and 9.47E-01 and 9.43E-01
normalized TR-FRET ligand displacement signal, dose-response replicates (SI Fig 6) (HsProRS; Log[inhibitor] (M) -8.301): 9.85E-01 and 1.04E+00 and 1.05E+00
TR-FRET dose-response, normalized signal (SI Fig 11) (HsProRS; Log[inhibitor] (M) -8.301): 8.99E-01 and 9.31E-01 and 9.94E-01
normalized TR-FRET ligand displacement signal, dose-response replicates (SI Fig 6) (HsProRS; Log[inhibitor] (M) -8.602): 9.47E-01 and 9.26E-01 and 9.87E-01
TR-FRET dose-response, normalized signal (SI Fig 11) (HsProRS; Log[inhibitor] (M) -8.602): 9.70E-01 and 9.30E-01 and 9.54E-01
normalized TR-FRET ligand displacement signal, dose-response replicates (SI Fig 6) (HsProRS; Log[inhibitor] (M) -9.000): 9.16E-01 and 9.83E-01 and 9.58E-01
TR-FRET dose-response, normalized signal (SI Fig 11) (HsProRS; Log[inhibitor] (M) -9.000): 9.06E-01 and 1.03E+00 and 9.30E-01
normalized TR-FRET ligand displacement signal, dose-response replicates (SI Fig 6) (HsProRS; Log[inhibitor] (M) -9.301): 8.87E-01 and 1.01E+00 (2×)
TR-FRET dose-response, normalized signal (SI Fig 11) (HsProRS; Log[inhibitor] (M) -9.301): 9.47E-01 and 9.42E-01 and 9.85E-01
EC50 (P. falciparum Dd2-2D4): 9.59 µM
dose-response signal (normalized), SI Fig 8 (PfcProRS; Log[inhibitor] (M) -5.000): 2.91E-01 and 3.96E-01 and 3.40E-01
dose-response signal (normalized), SI Fig 8 (PfcProRS; Log[inhibitor] (M) -5.301): 6.52E-01 and 5.68E-01 and 6.33E-01
dose-response signal (normalized), SI Fig 8 (PfcProRS; Log[inhibitor] (M) -5.601): 7.76E-01 and 6.88E-01 and 8.76E-01
dose-response signal (normalized), SI Fig 8 (PfcProRS; Log[inhibitor] (M) -5.904): 1.01E+00 and 9.17E-01 and 9.47E-01
dose-response signal (normalized), SI Fig 8 (PfcProRS; Log[inhibitor] (M) -6.208): 1.01E+00 and 1.00E+00 and 8.81E-01
dose-response signal (normalized), SI Fig 8 (PfcProRS; Log[inhibitor] (M) -6.509): 9.40E-01 and 8.71E-01 and 1.01E+00
dose-response signal (normalized), SI Fig 8 (PfcProRS; Log[inhibitor] (M) -6.796): 1.06E+00 and 9.99E-01 and 1.08E+00
dose-response signal (normalized), SI Fig 8 (PfcProRS; Log[inhibitor] (M) -7.108): 9.00E-01 and 9.54E-01 and 9.75E-01
dose-response signal (normalized), SI Fig 8 (PfcProRS; Log[inhibitor] (M) -7.409): 1.04E+00 and 1.03E+00 and 9.91E-01
dose-response signal (normalized), SI Fig 8 (PfcProRS; Log[inhibitor] (M) -7.710): 9.51E-01 and 8.62E-01 and 1.00E+00
dose-response signal (normalized), SI Fig 8 (PfcProRS; Log[inhibitor] (M) -8.000): 9.32E-01 and 1.04E+00 and 9.09E-01
dose-response signal (normalized), SI Fig 8 (PfcProRS; Log[inhibitor] (M) -8.301): 9.87E-01 and 9.76E-01 and 8.57E-01
dose-response signal (normalized), SI Fig 8 (PfcProRS; Log[inhibitor] (M) -8.602): 1.04E+00 (2×) and 9.76E-01
dose-response signal (normalized), SI Fig 8 (PfcProRS; Log[inhibitor] (M) -9.000): 9.49E-01 and 9.11E-01 and 1.01E+00
dose-response signal (normalized), SI Fig 8 (PfcProRS; Log[inhibitor] (M) -9.301): 1.10E+00 and 1.02E+00 and 1.05E+00
PfcProRS -- best Kd (PfcProRS; SI Fig 16a, values on -log scale): 5.845
